Assay results: PubChem BioAssay (NCI)
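48-hour exposure; five concentrations; linearly interpolated endpoints. GI50 marks 50% less growth. At the TGI there is no net growth.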

Assays:
Experiment in all cases: NCI tumour cell line growth inhibition, 48 h
[1] = test system: BT-549 breast
[2] = test system: NCI/ADR-RES ovarian
[3] = test system: PC-3 prostate
[4] = test system: T-47D breast

| Structure (SMILES) | GI50 [1] | TGI [1] | GI50 [2] | TGI [2] | GI50 [3] | TGI [3] | GI50 [4] | TGI [4] |
| --- | --- | --- | --- | --- | --- | --- | --- | --- |
| COc1nc2c(c(=O)n1C)CN(c1ccccc1)C(=O)CN2C | 33.2 µM | > 100 µM | 72.2 µM | > 100 µM | 20 µM | > 100 µM | 11.1 µM | > 100 µM |
| N[C@@H](Cc1c[nH]c2ccccc12)C(=O)NC1CCN(Cc2c[nH]c3ccc(Cl)cc23)CC1 | 16 µM | 34.4 µM | 65.3 µM | > 100 µM | 6.01 µM | 19.9 µM | 4.65 µM | 20 µM |
| Oc1c(CN2CCCCC2)ccc2cccnc12 | 10.4 µM | > 100 µM | 0.955 µM | 10.9 µM | 7.12 µM | > 100 µM | 3.63 µM | 31 µM |
| O=C(Nc1ccc(Cl)cc1)c1cc(NCc2cc(O)ccc2O)ccc1O | 1.42 µM | 3.57 µM | 4.43 µM | 62.9 µM | 1.89 µM | 4.92 µM | 2.05 µM | 5.24 µM |
| COc1ccc2cc(C(=O)N3CCC([C@@H](C)C(=O)NCc4ccc5c(c4)OCO5)CC3)[nH]c2c1 | 43.7 µM | > 100 µM | > 100 µM | > 100 µM | > 100 µM | > 100 µM | > 100 µM | > 100 µM |
| CC(=O)CCc1ccc(Oc2c3ccccc3nc3occc23)cc1 |  |  | 15.4 µM | 45.6 µM | 14 µM | 41 µM | 2.3 µM | 22.6 µM |
| CC[C@H](C)[C@H](NC(=O)c1ncccn1)C(=O)N(C)[C@H](C[C@@H](OC(C)=O)c1nc(C(=O)N[C@@H](Cc2ccccc2)C[C@H](C)C(=O)OC)cs1)C(C)C | 1.47 µM | 11.7 µM | 11.7 µM | > 25 µM | 1.46 µM | > 25 µM |  |  |
| Cc1cccc2c(=O)c3c(sc12)c(NCCCN)nc1ccccc13 | 2.6 µM | 12.6 µM |  |  | 1.37 µM | 3.04 µM | 1.5 µM | 3.44 µM |
| COc1cccc(C2SC(C)C(=O)N2NC(=O)C(O)c2ccccc2)c1 (stereo unspecified) | > 100 µM | > 100 µM |  |  | > 100 µM | > 100 µM | > 100 µM | > 100 µM |
| C/C(COc1ccc2oc(-c3ccccc3)cc(=O)c2c1)=N\O |  |  | 36 µM | > 100 µM | 26.6 µM | 70.5 µM | 16.2 µM | > 100 µM |
| C=C(C)[C@@H]1C/C=C(/COC(C)=O)CC[C@H]2O[C@@]2(C)CC/C=C(\C)CC1 |  |  | > 100 µM | > 100 µM | > 100 µM | > 100 µM | > 100 µM | > 100 µM |
